Here are results for one compound from US9346741B2, “Polyamine transport selective therapeutic agents with enhanced stability” (University of Central Florida Research Foundation, Inc., priority 2012, dated 2016).

In general, viability refers to a per cent measure of how many cells are alive, often set against a control. High values mean better survival, low ones a greater loss of cells.

Data set [1] has as its system CHO cells. The data set is described as follows: cells. Type of data set: cell-based. To be noted: Cricetulus griseus, CHO, 48 h at 37° C. The source says:
(§1) CHO cells were chosen along with a mutant cell line (CHO-MG*) to comment on how the synthetic conjugates gain access to the cells.^2c-e, 6 As discussed earlier, the CHO-MG cell line is polyamine-transport deficient and represents a model for alternative modes of entry (other than PTS) including passive diffusion or use of another transporter. The CHO cell line on the other hand, represents cells with high polyamine transport activity.^7, 10c A comparison of toxicity in these two CHO cell lines allowed for a screen that would detect selective use of the polyamine transporter. This is seen where high utilization of the PTS would be very toxic to CHO cells, however, there would not be the same level of toxicity found in CHO-MG cells.^2c-e, 6 Ultimately, a CHO-MG/CHO IC50 can be determined where a high ratio would be achieved for highly PTS selective compounds.
(§2) CHO and CHO-MG cells were grown in RPMI 1640 medium supplemented with 10% fetal calf serum and 1% penicillin/streptomycin. Note: the media must contain L-proline (2 μg/mL) for proper growth of the CHO-MG cells. MALME-3M cells were grown in RPMI 1640 medium supplemented with 10% FBS and 1% penicillin/streptomycin. […] Cells in early to mid-log phase were used.
(§3) Cell growth was assayed in sterile 96-well microtiter plates (Costar 3599, Corning, N.Y., USA). CHO and CHO-MG* cells were plated at 10,000 cells/mL. MALME-3M and MALME-3 cells were plated at 5,000 cells/mL. Drug solutions (10 μL per well) of appropriate concentration were added after an overnight incubation for each CHO cell line (90 μL). 48 h MALME-3M experiments were conducted using 10% Nu-Serum IV, and 96 h MALME-3M and MALME-3 experiments were conducted using 10% FBS. After exposure to the drug for 48 h (CHO, CHO-MG*, and MALME-3M) or 96 h (MALME-3M and MALME-3), cell growth was determined by measuring formazan
(§4) formation from 3-(4,5-dimethylthiazol-2-yl)-5-(3-carboxymethoxyphenyl)-2-(4-sulphenyl)-2H-tetrazolium) inner salt (MTS) using a SynergyMx Biotek microplate reader for absorbance ([…]) measurements.^24

The subject of data set [2] is polyamine transport system (PTS), CHO-MG* vs CHO cells. Briefly: CHO-MG*/CHO IC50 ratio, a measure of PTS selectivity. Type of data set: cell-based, Chinese hamster. To be noted: 48 h.
Text: Compounds with high CHO-MG/CHO IC50 ratios are considered PTS selective.
as §1

Data set [3] relates to CHO-MG* cells. The data set is described as follows: Cytotoxicity IC50 determination (MTS) in polyamine-transport-deficient CHO-MG* cells. Type of data set: cell-based, Chinese hamster. To be noted: Cricetulus griseus, CHO-MG, 48 h at 37° C.
Text: as §1, §2, §3, §4

Data set [4] deals with MALME-3 cells. The data set is described as follows: Spermidine rescue experiments in MALME-3 cells. To be noted: dosed near the IC50 value; increasing spermidine. Type of data set: cell-based, human. The method, then:
(§5) In order to validate that these drugs were toxic due to their use of the polyamine transport system, spermidine rescue experiments were conducted. Spermidine is a native polyamine and uses the PTS for cell entry. High concentrations of spermidine should outcompete the PTS-targeting drugs for cell entry. In this regard, spermidine when dosed at a non-toxic concentration should rescue the cells from the toxic effects of the PTS targeting agents. […] Both the anthryl and naphthyl systems when dosed at their IC50 concentrations gave >92% viability at 10 μM spermidine validating their use of the PTS. Rescue was observed from the initial 50% viability to >92% viability after co-dosing 10 μM spermidine.
(§6) As stated above, in an effort to determine if the cytotoxicities seen for compounds 6-8 were polyamine transport related, MALME-3M and MALME-3 were dosed near the IC50 value of each drug. These cells were also treated with increasing amounts of spermidine to see if it could outcompete compounds 6-8 for cellular entry and thus rescue the cells. […] This supports the premise that these compounds gain access to these cells primarily via the PTS. […] Since the viability of MALME-3M cells could be partially rescued by spermidine, compounds 8a and 8b may gain access via the PTS and via non-PTS related pathway(s).

Data set [5] deals with MALME-3M cells. The data set is described as follows: Spermidine rescue experiments in MALME-3M cells. Type of data set: cell-based, human. The following applies: drug at its IC50 concentration, co-dosed 10 μM spermidine; cell line not given. The method, then: as §5, §6
In data set [6] the test system is MALME-3M cells. The data set is described as follows: Cytotoxicity IC50 determination (MTS) in MALME-3M cells. The following applies: Homo sapiens, Malme-3M. Type of data set: cell-based, human. The method, then: Armed with this insight, compounds 5a-8b were evaluated in the MALME-3M (melanoma) cell line and its non-cancerous counterpart MALME-3 obtained originally from the same patient. These matched cell lines provided a method to assess PTS selectivity for the cancer line (MALME-3M) over the non-cancerous cell line (MALME-3). […]
(§7) CHO and CHO-MG cells were grown in RPMI 1640 medium supplemented with 10% fetal calf serum and 1% penicillin/streptomycin. Note: the media must contain L-proline (2 μg/mL) for proper growth of the CHO-MG cells. MALME-3M cells were grown in RPMI 1640 medium supplemented with 10% FBS and 1% penicillin/streptomycin. All cells were grown at 37° C. under a humidified 5% CO2 atmosphere Aminoguanidine (1 mM) was added to the growth medium to prevent oxidation of the drugs by the enzyme (bovine serum amine oxidase) present in calf serum. Cells in early to mid-log phase were used.
as §3, §4

Data set [7] has as its system 60 human cancer cell lines. Briefly: NCI 60 cell-line screen. Type of data set: cell-based. To be noted: 5-dose assay.
Data set [8] relates to 60 human cancer cell lines. The data set is described as follows: NCI 60 cell-line screen. Type of data set: cell-based. To be noted: 10 μM; 48 h. The method, then: Once compounds 6a-b, 7a-b, and 8a-8b were evaluated in CHO and CHO-MG*, these compounds were sent to the National Cancer institute (NCI) to conduct its 60 cell-line screen to determine if these compounds could also be potent anti-cancer agents for human cancer cell lines. […] As shown in FIGS. 2A-2C, dose response curves were generated based upon the 60 cell-line screen at different molar concentrations of each PTS targeting agent 6b, 7b, and 8b.
To generate FIGS. 2A-2C, the respective drug was dosed at 10 μM into each human cancer cell line and cell viability was assessed after a 48 h incubation at 37° C. in an environment of 5% CO2, 95% air and 100% relative humidity. A more descriptive methodology can be found at the NCI website: http://dtp.nci.nih.gov/branches/btb/ivclsp.html. Cell lines which gave bar graphs which extend to the right of the central line were more sensitive to the drug than cell lines which extended to the left of the center line.

In data set [9] the test system is MALME-3 cells. Briefly: Cytotoxicity IC50 determination (MTS) in MALME-3 cells. Type of data set: cell-based, human. To be noted: Homo sapiens, MALME-3; 96 h at 37° C.; 1 mM AG; 10% FBS. The method, then: Armed with this insight, compounds 5a-8b were evaluated in the MALME-3M (melanoma) cell line and its non-cancerous counterpart MALME-3 obtained originally from the same patient. These matched cell lines provided a method to assess PTS selectivity for the cancer line (MALME-3M) over the non-cancerous cell line (MALME-3).
as §7, §3, §4

Data set [10] has as its system MALME-3M (melanoma) vs MALME-3 (normal) cells. The data set is described as follows: MALME-3/MALME-3M IC50 ratio, a measure of selectivity. Type of data set: cell-based, human. To be noted: 96 h; 1 mM AG. The source says:
These matched cell lines provided a method to assess PTS selectivity for the cancer line (MALME-3M) over the non-cancerous cell line (MALME-3).

Like-named read-outs stand apart in the source and are kept apart here.

Regarding `CNCCCCNCCCCNCc1ccc(CNCCCCNCCCCNC)cc1` [Compound 8b, N1,N1′-(1,4-Phenylenebis(methylene))bis(N4-(4-(methylamino)butyl)butane-1,4-diamine)], the IC50 in data set [1] (1 mM AG 24 h prior to drug addition, read-out: CHO IC50 (μM) w/AG) stood at 0.03 µM; in data set [1] (without AG, read-out: CHO IC50 (μM) w/o AG), 0.041 µM; in data set [3] (1 mM AG 24 h prior to drug addition, read-out: CHO-MG* IC50 (μM) w/AG), 51.5 µM; in data set [3] (without AG, read-out: CHO-MG* IC50 (μM) w/o AG) it was 54 µM; in data set [6] (48 h at 37° C., 1 mM AG, 10% Nu-Serum IV, read-out: MALME-3M IC50 (μM) w/ AG), 0.007 µM; in data set [6] (48 h at 37° C., without AG, 10% Nu-Serum IV, read-out: MALME-3M IC50 (μM) w/o AG), 0.007 µM. For the same compound, the IC50 in [6] (96 h at 37° C., 1 mM AG, 10% FBS, read-out: MALME-3M IC50) was found to be 0.01 µM; in [9], 20 nM. Besides, in data set [2] (with 1 mM AG), the “IC50 ratio w/AG (CHO-MG*/CHO)” value came to 1715. In addition, the “IC50 ratio w/o AG (CHO-MG*/CHO)” value in data set [2] (without AG) is on record as 1316. Also, the “rescue by exogenous spermidine in MALME-3” value in [4] is “complete rescue”. In data set [5], the “viability at 10 μM spermidine” value is 75%. Besides, the “NCI 5-dose assay, MALME-3M cell line” value in [7] was “dose dependent response”. In addition, the “effect on breast cancer cell lines in the NCI 60 cell-line screen” value in data set [8] is “exhibited an anti-proliferation effect in breast cancer cell lines, particularly the T-47D cell line”. The “effect on melanoma cell lines in the NCI 60 cell-line screen” value in data set [8] is recorded as “inhibited the proliferation of melanoma cell lines, particularly the MALME-3M cell line”. Moreover, the “MALME-3/MALME-3M IC50 ratio” value in data set [10] amounted to 2.
